We go through one sequence from publication PMC13233288, “Spider venom peptides Ht1a and Gg1a are toxic to honeybee parasite Varroa destructor by topical application” (npj Drug Discovery, 2026).

No end group written: not given here.

This experiment deals with AmNaV. Nature of the experiment: Two-electrode voltage clamp, AmNaV expressed in Xenopus laevis oocytes. The following applies: 500 nM sHt1a. The class given is biochemical, A. mellifera. An excerpt: To examine the activity of sHt1a against target and off-target arthropod voltage-gated sodium (NaV) channels, we used electrophysiological recordings of V. destructor (Vd) or A. mellifera (Am) NaV channels expressed in Xenopus laevis oocytes. The cDNA sequences of the VdNaV (in pGH19; kindly gifted by K. Dong[31]) and AmNaV channel (in pcDNA3.1; Genscript, USA) were confirmed by automated Sanger sequencing (Eurofins Genomics, Germany). RNA was synthesised using T7 polymerase (mMessage mMachine kit, Invitrogen, USA) after linearising the cDNA with an appropriate restriction enzyme (New England Biolabs, USA). NaV channel RNA was microinjected into defolliculated X. laevis oocytes (Nasco®, USA) which were then incubated for 2–3 days at 17 °C in Barth’s medium (in millimolar (mM): 96 NaCl, 2 KCl, 5 HEPES, 1 MgCl2, and 1.8 CaCl2 supplemented with 50 µg/mL gentamycin, pH 7.4 adjusted with NaOH (Sigma, USA)). The use of X. laevis complied with national and Flemish guidelines adhered to by the Ghent University Animal Care and Use Committee. Electrophysiological characteristics were studied using the two-electrode voltage-clamp technique (OC-725C; Warner Instruments, USA) with a 150-µL recording chamber as previously described. All data were filtered at 4 kHz (tunable active filter model 900, Frequency Devices Inc., USA) and digitised at 20 kHz using pClamp 10 software (Molecular Devices, USA). The external recording solution used was ND-100 (in mM: 100 NaCl, 5 HEPES, 1 MgCl2, and 1.8 CaCl2, pH 7.6 adjusted with NaOH; chemicals from Sigma, USA). Microelectrode (Narishige® PC-10 vertical puller) resistances were 0.5–1.0 MΩ when backfilled with 3 M KCl. All experiments were performed at room temperature (~22 °C).
For electrophysiological experiments, sHt1a dissolved at 50 µM in ND100 was added to the recording chamber containing ND100 to a final concentration of 500 nM. After current stabilisation, normalized conductance-voltage (G-V) and channel availability relationships were obtained by measuring steady-state currents upon stepwise depolarisation for 50 ms from a holding potential of –90 mV in 5 mV increments, followed by a 50 ms pulse at –20 mV. The data were fitted with a single Boltzmann function according to I/Imax (or G/Gmax) = [1+exp(-zF(V-V1/2)/RT)]^−1, where I/Imax is the normalised current amplitude, z is the equivalent charge, V1/2 is the half-activation voltage, F is Faraday’s constant, R is the gas constant, and T is the temperature in Kelvin. Off-line data analysis was performed using Clampfit 10 (Molecular Devices, USA), Excel (Microsoft Office) and Prism 10 (GraphPad). Tests for statistical differences included a student’s t-test for V1/2 values and a Kruskal–Wallis test for current inhibition, with p < 0.05 considered to be significant.
(In general: Two-electrode voltage clamp holds a large cell at a set potential and records current.)

Setting [1] is: AmNav, mean ± SEM, n = 6 oocytes.

Regarding “KYCAPRKAVCNTPADCCDKSSRCAYPNYGLGYYLDSEFFGKRKICSWRL (also: bicyclic or more (positions not given here)) [Ht1a, μ-gradutoxin-Ht1a]”, where the note is “ND-100 pH 7.6, ~22 °C, p = 0.0095 (Kruskal–Wallis)”, the “reduction in peak AmNaV current” value amounted to 24.7 ± 7.2%. The “change in half-maximal activation or inactivation values” (AmNaV, vs before treatment) is “without a significant change”. Moreover, under setting [1], the “Activation Hill slope” value was found to be 3.62 ± 0.61, the “Activation V1/2” value is “–27.6 ± 1.3 mV”, the “Steady state inactivation Hill slope” value is listed as “–5.12 ± 1.44” and the “Steady state inactivation V1/2” value was “–48.2 ± 1.0 mV”.
